Earlier results, collected in US20170002355A1, “cGAP-PNA MULTIVALENT PEPTIDE NUCLEIC ACID LIGAND DISPLAY” (THE USA, AS REPRESENTED BY THE SECRETARY, DEPART- MENT OF …, priority 2014, published 2017).

Legend:
hA1AR = target: T1, hA1AR (Homo sapiens, UniProt P30542); settings: published literature values of XAC (Kecskes et al. 2011)
T1 construct: expressed in transfected cells
T1 sequence (P30542 1-326): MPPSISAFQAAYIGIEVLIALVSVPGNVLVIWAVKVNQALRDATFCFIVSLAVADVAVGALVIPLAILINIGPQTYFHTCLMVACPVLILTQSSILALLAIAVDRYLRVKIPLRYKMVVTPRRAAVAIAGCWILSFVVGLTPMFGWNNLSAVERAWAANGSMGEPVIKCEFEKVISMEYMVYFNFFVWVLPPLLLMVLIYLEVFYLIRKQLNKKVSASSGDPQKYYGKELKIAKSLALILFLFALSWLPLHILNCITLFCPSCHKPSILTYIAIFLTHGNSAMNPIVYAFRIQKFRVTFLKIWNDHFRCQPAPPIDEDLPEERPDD

hA3AR = target: T2, hA3AR (Homo sapiens, UniProt P0DMS8); settings: published literature values of XAC (Kecskes et al. 2011)
T2 construct: expressed in transfected cells
T2 sequence (P0DMS8 1-318): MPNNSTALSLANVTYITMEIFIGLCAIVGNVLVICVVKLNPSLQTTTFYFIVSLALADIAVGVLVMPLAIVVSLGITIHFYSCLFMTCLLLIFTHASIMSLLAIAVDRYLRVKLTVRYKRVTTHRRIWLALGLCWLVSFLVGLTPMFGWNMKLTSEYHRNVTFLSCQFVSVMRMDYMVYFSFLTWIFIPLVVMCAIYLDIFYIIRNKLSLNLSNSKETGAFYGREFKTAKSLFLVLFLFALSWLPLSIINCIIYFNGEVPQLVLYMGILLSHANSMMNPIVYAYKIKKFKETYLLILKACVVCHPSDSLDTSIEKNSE

## CCCn1c(=O)c2[nH]c(-c3ccc(OCC(=O)NCCN)cc3)nc2n(CCC)c1=O [XAC, N-(2-aminoethyl)-2-[4-(2,3,6,7-tetrahydro-2,6-dioxo-1,3-dipropyl-1H-purin-8-yl)phenoxy]-acetamide]
hA1AR
  A1:A2A selectivity, literature: 1.4
hA3AR
  A3:A2A selectivity, literature: 2.4
